Tested on: microbial cell containing a nitrile hydratase
Format: biochemical
Conditions: benzene 26 ppm or acrolein 2 ppm in raw material acrylonitrile; more wet microbial cell needed
Description: There were prepared a 1-liter glass flask equipped with a stirrer as a first reactor and a Teflon (trademark) tube with an inside diameter of 5 mm and a length of 20 m as a second reactor. To the first reactor was charged 400 g of water in advance.
In accordance with the method described in Japanese Patent Application Laid-Open Publication No. 2001-340091, a microbial cell containing a nitrile hydratase was cultured and the resulting wet microbial cell was suspended in a 0.3 mM-NaOH aqueous solution. The suspension and the acrylonitrile b were continuously fed into the first reactor under stirring at a rate of 49 g/h and 31 g/h, respectively. In addition, the reaction solution was continuously taken out from the first reactor at a rate of 80 g/h so that the liquid level of the first reactor was maintained constant. The liquid taken out was continuously fed into the second reactor at a rate of 80 g/h and the reaction was further performed in the second reactor. […]
The amount of the wet microbial cell added to the 0.3 mM-NaOH aqueous solution was adjusted so that the conversion rate to acrylamide at the outlet of the first reactor was 90% or higher and the concentration of acrylonitrile at the outlet of the second reactor was at the detection limit or less (100 ppm or less). The conversion rate to acrylamide was determined by the analysis of HPLC. […]

c1ccccc1 [benzene]
inhibition of reaction by impurity in acrylonitrile: inhibition of reaction by benzene was confirmed

C=CC=O [acrolein]
inhibition of reaction by impurity in acrylonitrile: inhibition of reaction by acrolein was confirmed
